Experimental data published in US7663000B2, “Quinoneimines of malonic acid diamides” (A-Viral ASA, priority 2003, dated 2010).

Test: Stability in aqueous solution, analysed by 1H NMR
Type: physicochemical
Excerpt: The product of Example 2 (PHBPQ, N-phenyl-2-hydroxy-2 butyl 1,3-propanal quinoneimine) was examined for stability in aqueous solution, followed by analysis by ^1H NMR spectroscopy.

stability compared with 4-OH-OPB (pH 7.4): more stable at pH 7.4 than 4-OH-OPB | re-conversion into 4-OH-OPB (when the solution was acidified): not re-converted into 4-OH-OPB
Substance: N-phenyl-2-hydroxy-2 butyl 1,3-propanal quinoneimine [PHBPQ]
